How the values were obtained:
[1] = tested on: irradiated tumors (LLC and GL261); assay: In vivo screening of T7 phage peptide library, LLC and GL261 tumors pooled; set-up: species or system mice; conditions: for Frequency of Recovery: conserved motifs within peptides identified by in vivo screening
Procedure: GL261 murine glioma cells and Lewis lung carcinoma cells were implanted into the hind limb of C57BL6 mice (Hallahan et al., 1995b; Hallahan et al., 1998; Hallahan & Virudachalam, 1999).
For in vivo screening, tumors were irradiated with 3 Gy and approximately 10^10 phage (prepared as described in Example 4) were administered by tail vein injection into each of the tumor bearing mice at 4 hours following irradiation. Tumors were recovered at one hour following injection and amplified in BL21 bacteria. Amplified phage were pooled and re-administered to a tumor-bearing mouse following tumor irradiation. The phage pool was sequentially administered to a total of 6 animals. As a control, wild type phage lacking synthetic peptide inserts were identically administered to a second experimental group of animals.
To determine the titer of phage binding in a tumor or in normal tissue, recovered phage were amplified in BL21 bacteria. Bacteria were plated and the number of plaques present were counted. To determine the total phage output per organ, the number of plaque forming units (PFU) on each plate was divided by the volume of phage plated and the weight of each organ.
An individual phage suspension was used as template. Amplified peptides were sequenced using an ABI PRISM 377 sequencer (PE Biosystems, Foster City, Calif., United States of America).

LLC tumors = assay: In vivo screening of T7 phage peptide library, irradiated LLC tumors; set-up: species or system mice; conditions: 3 Gy, 6 rounds of in vivo screening; for Number of Phage Recovered from LLC tumors: randomly selected phage
Procedure: (§1) A population of DNA fragments encoding recombinant peptide sequences was cloned into the T7 […] vector (Novagen, Madison, Wis., United States of America). […] The resulting reading frame requires an AAT initial codon followed by a TCX codon. The molar ratio between insert and vector was 1:1. Size-fractionated cDNA inserts were prepared by gel filtration on sepharose 4B and ranged from 27 base pairs to 33 base pairs. cDNAs were ligated by use of the DNA ligation kit (Novagen, Madison, Wis., United States of America). Recombinant T7 DNA was packaged according to the manufacturer's instructions and amplified prior to bioscreening in animal tumor models. […] GL261 murine glioma cells and Lewis lung carcinoma cells were implanted into the hind limb of C57BL6 mice ([…] et al., 1995[…] et al., 1998; […], 1999). […] Tumors were recovered at one hour following injection and amplified in BL21 bacteria. Amplified phage were pooled and re-administered to a tumor-bearing mouse following tumor irradiation. The phage pool was sequentially administered to a total of 6 animals. […] To determine the titer of phage binding in a tumor or in normal tissue, recovered phage were amplified in BL21 bacteria. Bacteria were plated and the number of plaques present were counted. To determine the total phage output per organ, the number of plaque forming units (PFU) on each plate was divided by the volume of phage plated and the weight of each organ. […] Following 6 rounds of in vivo screening, fifty recombinant phage peptides that bound within irradiated tumors were randomly selected for further analysis. The nucleic acid sequence encoding recombinant phage was amplified by PCR using primers set forth as SEQ ID NOs: 14-15 (available from Novagen, Madison, Wis., United States of America). An individual phage suspension was used as template. Amplified peptides were sequenced using an ABI PRISM 377 sequencer (PE Biosystems, Foster City, Calif., United States of America).

GL261 tumors = assay: In vivo screening of T7 phage peptide library, irradiated GL261 tumors; set-up: species or system mice; conditions: 3 Gy, 6 rounds of in vivo screening; for Number of Phage Recovered from GL261 tumors: randomly selected phage
Procedure: as §1

[2] = tested on: melanoma, lung carcinoma, and glioma tumor models; assay: Binding of peptide-encoding phage in additional tumor models; format: in vivo, mice; conditions: B16F0 melanoma, Lewis lung carcinoma, GL261 glioma
Excerpt: The binding properties of phage encoding […] (SEQ ID NO: 1), […] (SEQ ID NO: 2), […] (SEQ ID NO: 3), and NSVGSRV (SEQ ID NO: 4) were additionally characterized in a B16F0 melanoma model.

[3] = tested on: P-selectin and platelet membrane glycoprotein IIB; assay: Screening of phage-displayed scFv library on immobilized neoantigens, Western immunoblot, then in vivo screening of irradiated tumors; format: binding; conditions: recovered following in vivo screening to irradiated tumors
Procedure: A phage library comprising diverse single chain antibodies was prepared in M13 phage. Briefly, nucleotide sequences encoding antibody VL and VH regions separated by a (Gly4Ser)3 linker were fused to M13 gene III nucleotide sequences. When a recombinant M13 carrying these antibody-gene III fusions infects an appropriate host bacterium, the host produces recombinant M13 phage that display scFv antibody polypeptides (VL-linker-VH) fused to gene III protein.
The phage library was exposed to the radiation-inducible neoantigens P-selectin (also called CD62P; GENBANK™ Accession No. P98109) and/or platelet membrane glycoprotein IIB (also called CD41; GENBANK™ Accession No. P08514) immobilized on glass slides. Phage were selected based on antigen binding, and selected phage were pooled as a biased library. For representative in vitro screening methods, see Fowlkes et al., 1992; Haaparanta & Huse, 1995; Jung & Pluckthun, 1997; Peter et al., 2000; Holzem et al., 2001; Chiu et al., 2000.
Phage identified by in vitro screening were tested on Western immunoblots to confirm binding to the P-selection and platelet membrane glycoprotein IIB neoantigens. Phage that specifically bound P-selectin and platelet membrane glycoprotein IIB were subsequently used for in vivo screening of irradiated tumors as described in Example 5. Wild type phage were used as internal controls. Antibodies having substantial affinity for irradiated tumors were identified by observing an increased number of phage in the irradiated tumor when compared to a number of phage in a control organ (e.g., liver and lung). Phage antibodies with the greatest affinity for tumors were identified using the formula: number of phage in irradiated tumor/number of phage in each organ.

Molecule: GSRV (Artificial peptide ligand number 7)
- share of peptide sequences recovered from 6 irradiated tumors having the subsequence ([1]; mouse, in vivo): 4%

Molecule: GSSV (Artificial peptide ligand number 13)
- Frequency of Recovery [1]: 56%
- phage recovered from irradiated tumors ([1]; mouse, in vivo): 22-40 of 10^6 injected phage
- share of peptide sequences recovered from 6 irradiated tumors having the subsequence ([1]; mouse, in vivo): 56%

Molecule: GSXV [conserved motif within recovered peptides]
- Frequency of Recovery [1]: 78%

Molecule: NHVGGSSV (Artifical peptide ligand number 1)
- Phage Recovered from LLC tumors (Frequency) (LLC tumors): 28%
- Number of Phage Recovered from LLC tumors (LLC tumors): 7
- Phage Recovered from GL261 tumors (Frequency) (GL261 tumors): 48%
- Number of Phage Recovered from GL261 tumors (GL261 tumors): 12
- binding of phage encoding the peptide within tumor models [2]: bound within the melanoma, lung carcinoma, and glioma tumor models

Molecule: NSLRGDGSSV (phage-displayed; Artificial peptide ligand number 2)
- Phage Recovered from LLC tumors (Frequency) (LLC tumors): 28%
- Number of Phage Recovered from LLC tumors (LLC tumors): 7
- Phage Recovered from GL261 tumors (Frequency) (GL261 tumors): 8%
- Number of Phage Recovered from GL261 tumors (GL261 tumors): 2
- binding of phage encoding the peptide within tumor models [2]: bound within the melanoma, lung carcinoma, and glioma tumor models

Molecule: NSV (Artificial peptide ligand number 10) [conserved motif within recovered peptides]
- Frequency of Recovery [1]: 22%

Molecule: NSVGSRV (Artificial peptide ligand number 4)
- Phage Recovered from LLC tumors (Frequency) (LLC tumors): 4%
- Number of Phage Recovered from LLC tumors (LLC tumors): 1
- Phage Recovered from GL261 tumors (Frequency) (GL261 tumors): 12%
- Number of Phage Recovered from GL261 tumors (GL261 tumors): 3
- binding of phage encoding the peptide within tumor models [2]: bound within lung carcinoma and glioma

Molecule: NSVRGSGSGV (Artificial peptide ligand number 3)
- Phage Recovered from LLC tumors (Frequency) (LLC tumors): 28%
- Number of Phage Recovered from LLC tumors (LLC tumors): 7
- Number of Phage Recovered from GL261 tumors (GL261 tumors): 0
- binding of phage encoding the peptide within tumor models [2]: bound within glioma and melanoma

Molecule: NSXR [conserved motif within recovered peptides]
- Frequency of Recovery [1]: 32%

Molecule: NSXRGXGS [conserved motif within recovered peptides]
- Frequency of Recovery [1]: 32%

Molecule: NXVG [conserved motif within recovered peptides]
- Frequency of Recovery [1]: 46%

Molecule: RGDGSSV (Artificial peptide ligand number 6)
- share of peptide sequences recovered from 6 irradiated tumors having the subsequence ([1]; mouse, in vivo): 18%

B1: SEQ ID NO: 22: scFv antibody encoded by SEQ ID NO: 21 (protein)
scFv: MAQVQLQESGPGLVKPSQSLSLTCSVTGYSITSNYWGWIRKFPGNKMEWMGYISYSGSTSYNPSLKSRISITRDTSKNQLFLQLNSVTTEDTATYYCARYSLFNYGRRDYVMDAWGQGTTVTVSSGGGGSGGGGSGGGGSDIELTQSPATMAASPGEKVTITCRASSTVSYMHWFQQKPGASPKPWIYDTSKLASGVPDRFSGSGSGTDFTLTIDPVQADDIATYYCQQSKDDPRTFGGGTKLELKRRPQVRRCRIRIRWNRVPH
modifications: Nucleic acid encoding scFv antibody 4A
- neoantigen recognition [3]: recognize the radiation-inducible neoantigens P-selectin and platelet membrane glycoprotein IIB

B2: SEQ ID NO: 18: scFv antibody encoded by SEQ ID NO: 17 (protein)
scFv: MAQVKLQQSGAELVMPGASVKMSCKASGYTFTDYWMHWVKQRPGQGLEWIGAIDTSDSYTSYNQKFKGKATLTVDESSSTAYMQLSSLTSEDSAVYYCARRGYYSAFDYWGQGTTVTVSSGGGGSGGGGSGGGGSDIELTQSPTTMAASPGEKVTITCRASSSVSYMHWFQQKSGTSPKPWIYDTSKLASGVPDRFSGSGSGTSYSLTISSMEAEDAATYYCLQRSSYPYTFGAGTKLEIKR
modifications: Artificial antibody ligand number 1
- neoantigen recognition [3]: recognize the radiation-inducible neoantigens P-selectin and platelet membrane glycoprotein IIB

B3: SEQ ID NO: 20: scFv antibody encoded by SEQ ID NO: 19 (protein)
scFv: MAQVKLQQSGPELVKPGASVKMSCKASGYTFTSYVMHWVKQKPGQGLEWIGYINPYNDGTKYNEKFKGKAALTSDKSSSTAYMELSSLTSEDSAVYYCARFGNYGALDYWGQGTTVTVSSGGGGSGGGGSGGGGSDIELTQSPTIMSASPGEKVTITCSASSSVSYMHWFQQKPGTSPKPWIYGTSNLASGVPVRFSGSGSGTSYSLTISSMEAEDAATYYCQQWSSYPLTFGGGTKLEIKR
modifications: Artificial antibody ligand number 2
- neoantigen recognition [3]: recognize the radiation-inducible neoantigens P-selectin and platelet membrane glycoprotein IIB

B4: SEQ ID NO: 24: scFv antibody encoded by SEQ ID NO: 23 (protein)
scFv: MAQVKLQQSGPELVKPGASVKMSCKASGYTFTSYVMHWVKQSNGKSLEWIGTIDPYYGGTSYNQKFKGKATLTVDKSSTTAYIQLKSLTSEDSAVYYCARWDGYYGGFSYWGQGTMVTVSSGGGGSGGGGSGGGGSDIELTQSPAIMSATLGEKVTMSCRASSNVKYMYWYQQKSGASPKLWIYYTSNLASGVPARFSGSGSGTSYSLTISSVEAEDAATYYCQQFTSSPYTFGSGTKLEIKRAAAGAPVPYPDPLEPRAA
modifications: nucleic acid encoding scFv antibody 10A
- neoantigen recognition [3]: recognize the radiation-inducible neoantigens P-selectin and platelet membrane glycoprotein IIB
